From doi:10.1101/2023.12.12.571245v1, “Serine hydroxymethyl transferase is a binding target of caprylic acid: Uncovering a novel molecular target for a herbicide and for producing caprylic acid-tolerant crops” (biorxiv, 2023)
Where two headings read alike, the source gives them in different places.

Experiments:
CcSHMT1 [1] = target: T1, CcSHMT1 (Erigeron canadensis, UniProt A0A8M0FGR5, S186A); assay: microscale thermophoresis (MST); type: binding
T1 construct: total CDS (1539 bp)
T1 sequence (A0A8M0FGR5 1-513 S186A): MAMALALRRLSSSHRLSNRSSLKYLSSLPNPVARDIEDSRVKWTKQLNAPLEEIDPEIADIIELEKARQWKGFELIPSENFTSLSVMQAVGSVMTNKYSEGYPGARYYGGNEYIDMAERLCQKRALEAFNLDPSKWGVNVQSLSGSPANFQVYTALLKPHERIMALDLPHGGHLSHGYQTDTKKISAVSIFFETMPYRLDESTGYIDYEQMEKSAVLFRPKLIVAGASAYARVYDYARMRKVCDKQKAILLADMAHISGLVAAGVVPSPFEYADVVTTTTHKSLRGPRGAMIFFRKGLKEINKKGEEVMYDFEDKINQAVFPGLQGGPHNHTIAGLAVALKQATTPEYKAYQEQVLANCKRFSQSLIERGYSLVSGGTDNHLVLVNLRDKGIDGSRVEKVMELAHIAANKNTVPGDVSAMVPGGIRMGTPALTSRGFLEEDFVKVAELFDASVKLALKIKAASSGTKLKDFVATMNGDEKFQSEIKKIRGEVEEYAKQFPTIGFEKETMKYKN

CcSHMT1 [2] = target: T2, CcSHMT1 (Erigeron canadensis, UniProt A0A8M0FGR5, A187T); assay: microscale thermophoresis (MST); type: binding
T2 construct: total CDS (1539 bp); homology model is a tetramer
T2 sequence (A0A8M0FGR5 1-513 A187T): T1 sequence (A0A8M0FGR5 1-513 S186A)

CcSHMT1 [3] = target: T3, CcSHMT1 (Erigeron canadensis, UniProt A0A8M0FGR5, V188L); assay: microscale thermophoresis (MST); type: binding
T3 construct: total CDS (1539 bp)
T3 sequence (A0A8M0FGR5 1-513 V188L): T1 sequence (A0A8M0FGR5 1-513 S186A)

CcSHMT1 [4] = target: T4, CcSHMT1 (Erigeron canadensis, UniProt A0A8M0FGR5); assay: SHMT activity by benzaldehyde production from DL-β-phenylserine; type: biochemical; conditions: competitive versus DL-β-phenylserine; CAP 0.63-44.23 μM, assayed 0.5 h after CAP addition
T4 construct: total CDS (1539 bp); homology model is a tetramer
T4 sequence (A0A8M0FGR5 1-513): T1 sequence (A0A8M0FGR5 1-513 S186A)

CcSHMT1 [5] = target: T4, CcSHMT1; assay: microscale thermophoresis (MST); type: binding

Structure (SMILES)	Kd (CcSHMT1 [1]) [µM]	Kd (CcSHMT1 [2]) [µM]	Kd (CcSHMT1 [3]) [µM]	IC50 (CcSHMT1 [4]) [µM]	Kd (CcSHMT1 [5]; read-out: Kd) [µM]	Kd (CcSHMT1 [5]; negative control, bound is the highest concentration tested, not a printed Kd, read-out: no binding up to 50 μM) [µM]
CCCCCCCC(=O)O [Caprylic acid]	15.5	51.9	28	23.1	12.3	
COc1cc(C(=O)O)ccc1O [Vanillic acid, reference compound]						> 50
